Experimental data: patent publication US20140073631A1 (priority 2012, published 2014)
Converted amounts (≈) assume the structure as drawn. Read-outs that look alike come from different tables or passages of the source.

Tests used:
Bacillus anthracis = assay: microbe, parasite or virus in culture; type: cell-based; details: Bacillus anthracis; read-out: MIC90
Francisella tularensis = assay: microbe, parasite or virus in culture; type: cell-based; details: Francisella tularensis
[1] = system: Flu A H1N1 New Caledonia/20/99; assay: Anti-influenza testing, visual and NR assays; type: cell-based, influenza A H1N1; details: for activity by visual and NR assays: Flu A H1N1
[2] = system: Flu A H3N2 California/7/04; assay: Anti-influenza testing, visual and NR assays; type: cell-based, influenza A H3N2; details: for EC50: H3N2, MDCK; for activity by visual and NR assays: Flu A H3N2
MDCK = assay: Anti-influenza testing, IC50 in MDCK cell line (cell-inhibitory concentration used for SI); type: cell-based; details: Canis lupus familiaris
B. pseudomallei = assay: microbe, parasite or virus in culture; type: cell-based; details: Burkholderia pseudomallei, read-out: MIC B. pseudomallei
Y. pestis = assay: microbe, parasite or virus in culture; type: cell-based; details: Yersinia pestis, read-out: MIC Y. pestis
E. coli = assay: microbe, parasite or virus in culture; type: cell-based; details: Escherichia coli, read-out: MIC E. coli
H37Rv Colorado strain [3] = assay: MBC Determination with H37Rv Colorado strain (Table 9); type: cell-based; details: Mycobacterium tuberculosis; Performed with H37Rv
H37Rv Colorado strain [4] = assay: TB MIC Testing (Table 9); type: cell-based; details: Mycobacterium tuberculosis, read-out: MIC Value, Standard Test Strain H27Rv
Vero Cells = assay: Cytotoxicity Assay, CellTiter-Glo Luminescent Cell Viability Assay
P. aeruginosa = assay: microbe, parasite or virus in culture; type: cell-based; details: Pseudomonas aeruginosa, read-out: MIC P. aeruginosa
F. tularensis = assay: microbe, parasite or virus in culture; type: cell-based; details: Francisella tularensis, read-out: MIC F. tularensis (Original Test)
TB = assay: DMID TB MIC Results (Table 10); type: cell-based; details: Mycobacterium tuberculosis; solvent DMSO
B. mallei = assay: microbe, parasite or virus in culture; type: cell-based; details: Burkholderia mallei, read-out: MIC B. mallei
B. anthracis = assay: microbe, parasite or virus in culture; type: cell-based; details: Bacillus anthracis, read-out: MIC B. anthracis
Plasmodium falciparum = assay: Anti-malaria testing; type: cell-based
Burkholderia mallei = assay: microbe, parasite or virus in culture; type: cell-based
[5] = system: Burkholderia pseudomallei; assay: microbe, parasite or virus in culture; type: cell-based
HIV-1 = assay: CEM-SS microtiter antiviral XTT cytoprotection assay; type: cell-based
[6] = system: HIV-1 ROJO (low passage clinical strain); assay: PBMC assay, virus production by reverse transcriptase activity; type: cell-based
[7] = system: fresh human peripheral blood mononuclear cells
[8] = average of Test 1 and Test 2, read-out: Average IC50

Compound: N=C(NC(=N)N1CCSCC1)NC1C2CC3CCC1(NC(=N)NC(=N)N1CCSCC1)CC3C2 (stereo not shown) [BVS-20A (XII)]
- MIC90 (Bacillus anthracis): ≤ 4 µg/mL
- MIC90 (Francisella tularensis): < 4 µg/mL

Compound: O=C1C2C=CC=C([N+](=O)[O-])C2(C(=O)O)C(c2ccccc2)N1c1ccc(O)cc1 (stereo not shown) [BVS-45]
- EC90 ([1]; Influenza A virus, Virus Yield assay, Flu A (H1N1) New Caledonia/20/99, MDCK, vehicle DMSO, trial 2): > 100 µg/mL
- EC50 ([1]; Influenza A virus, Visual-CONF assay, Flu A (H1N1) New Caledonia/20/99, MDCK, vehicle DMSO, trial 2, read-out: EC50): 0.18 µg/mL (≈ 0.459 µM)
- EC50 ([2]; Influenza A virus, Neutral Red assay, Flu A (H3N2) California/7/04, MDCK, vehicle DMSO, trial 1): 0.22 µg/mL (≈ 0.561 µM)
- EC50 ([2]; Influenza A virus, Visual assay, Flu A (H3N2) California/7/04, MDCK, vehicle DMSO, trial 1): 0.056 µg/mL (≈ 0.143 µM)
- EC50 ([2]; Influenza A virus, Visual-CONF assay, Flu A (H3N2) California/7/04, MDCK, vehicle DMSO, trial 2): 0.056 µg/mL (≈ 0.143 µM)
- EC90 ([2]; Influenza A virus, Virus Yield assay, Flu A (H3N2) California/7/04, MDCK, vehicle DMSO, trial 2): 0.15 µg/mL (≈ 0.382 µM)
- IC50 (MDCK; Neutral Red assay, test with Flu A (H3N2) California/7/04, trial 1, read-out: IC50): 75 µg/mL (≈ 191 µM)
- IC50 (MDCK; Visual assay, test with Flu A (H1N1) New Caledonia/20/99, trial 1): > 100 µg/mL
- IC50 (MDCK; Visual assay, test with Flu A (H3N2) California/7/04, trial 1, read-out: IC50): > 100 µg/mL
- IC50 (MDCK; Visual-CONF assay, test with Flu A (H1N1) New Caledonia/20/99, trial 2, read-out: IC50): > 100 µg/mL
- IC50 (MDCK; Visual-CONF assay, test with Flu A (H3N2) California/7/04, trial 2, read-out: IC50): > 100 µg/mL

Compound: C[C@@H]1COc2c(N3CCN(C(=N)NC(=N)NCCCCCCNC(=N)NC(=N)N4CCN(c5c(F)cc6c(=O)c(C(=O)O)cn7c6c5OC[C@@H]7C)CC4)CC3)c(F)cc3c(=O)c(C(=O)O)cn1c23 [BVS-85A (XVII)]
- MIC (B. pseudomallei): 8 µg/mL (≈ 8.47 µM)
- MIC (Y. pestis): 0.06 to 0.12 µg/mL (≈ 0.0635 to 0.127 µM)
- MIC (E. coli): < 0.06 µg/mL
- MBC (H37Rv Colorado strain [3]): 1.25 µg/mL (≈ 1.32 µM)
- MIC (H37Rv Colorado strain [4]): 1.25 µg/mL (≈ 1.32 µM)
- % Viability (Vero Cells; 0.01 μg/ml): 109%
- % Viability (Vero Cells; 0.02 μg/ml): 109%
- % Viability (Vero Cells; 5 μg/ml): 106%
- % Viability (Vero Cells; 10 μg/ml): 101%
- % Viability (Vero Cells; 20 μg/ml, vs […] DMSO controls): 107%
- MIC (P. aeruginosa): 0.5 µg/mL (≈ 0.529 µM)
- MIC (F. tularensis): < 0.06 µg/mL
- IC50 (TB): 0.53 µg/mL (≈ 0.561 µM)
- IC90 (TB): 0.57 µg/mL (≈ 0.603 µM)
- MIC (TB): 0.625 µg/mL (≈ 0.661 µM)
- MIC (B. mallei): 0.5 µg/mL (≈ 0.529 µM)
- MIC (B. anthracis): < 0.06 µg/mL
- IC50 (Plasmodium falciparum; [8]): 7.26 µM
- IC50 (Plasmodium falciparum; read-out: IC50 Test 1): 5.45 µM
- IC50 (Plasmodium falciparum; read-out: IC50 Test 2): 9.06 µM

Compound: NNC(=O)c1ccncc1 [Isoniazid, isoniazid, reference compound]
- MBC (H37Rv Colorado strain [3]): 0.031 µg/mL (≈ 0.226 µM)
- MIC (H37Rv Colorado strain [4]): 0.031 µg/mL (≈ 0.226 µM)
- MIC (TB): 0.06 µg/mL (≈ 0.438 µM)

Compound: CC[C@H]1OC(=O)[C@H](C)[C@@H](O[C@H]2C[C@@](C)(OC)[C@@H](O)[C@H](C)O2)[C@H](C)[C@@H](O[C@@H]2O[C@H](C)C[C@H](N(C)C)[C@H]2O)[C@](C)(O)C[C@@H](C)CN(C)[C@H](C)[C@@H](O)[C@]1(C)O [Azithromycin, azithromycin, reference compound]
- MIC Range (Burkholderia mallei): 0.0625 to 1 µg/mL
- MIC50 (Burkholderia mallei; Burkholderia mallei): 0.5 µg/mL (≈ 0.668 µM)
- MIC90 (Burkholderia mallei; Burkholderia mallei, read-out: MIC90): 1 µg/mL (≈ 1.34 µM)

Compound: O=C1C2C=CC=C([N+](=O)[O-])C2(C(=O)O)C(c2ccccc2)N1c1ccc(O)cc1 (stereo not shown) [BVS-45A (I)]
- activity by visual and NR assays [1]: highly active
- activity by visual and NR assays [2]: highly active

Compound: N#CNC(=N)NC1C2CC3CCC1(NC(=N)NC#N)CC3C2 (stereo not shown) [BVS-47]
- EC50 ([1]; Influenza A virus, H1N1, MDCK): 0.25 µg/mL (≈ 0.832 µM)
- IC50 (MDCK; Neutral Red assay, test with Flu A (H1N1) New Caledonia/20/99, trial 1): 70 µg/mL (≈ 233 µM)

Compound: CC(C)(O/N=C(\C(=O)N[C@@H]1C(=O)N2C(C(=O)[O-])=C(C[n+]3ccccc3)CS[C@H]12)c1csc(N)n1)C(=O)O [Ceftazidime, ceftazidime, reference compound]
- MIC Range [5]: 0.5 to 32 µg/mL
- MIC50 ([5]; Burkholderia pseudomallei): 2 µg/mL (≈ 3.66 µM)
- MIC90 ([5]; Burkholderia pseudomallei): 4 µg/mL (≈ 7.32 µM)

Compound: N#CNC(=N)NC1C2CC3CCC1(NC(=N)NC#N)CC3C2 (stereo not shown) [BVS-47A (XX)]
- activity by visual and NR assays [1]: highly active
- activity by visual and NR assays [2]: highly active
- IC50 (Plasmodium falciparum; [8]): > 10 µM
- IC50 (Plasmodium falciparum; read-out: IC50 Test 1): > 10 µM
- IC50 (Plasmodium falciparum; read-out: IC50 Test 2): > 10 µM

Compound: O=C(O)c1cn(C2CC2)c2cc(N3CCNCC3)c(F)cc2c1=O [Ciprofloxacin, ciprofloxacin, reference compound]
- MIC (B. pseudomallei): 0.5 to 1 µg/mL (≈ 1.51 to 3.02 µM)
- MIC (E. coli): 0.015 to 0.06 µg/mL (≈ 0.0453 to 0.181 µM)
- MIC (P. aeruginosa): 0.25 µg/mL (≈ 0.754 µM)
- MIC (B. mallei): 1 µg/mL (≈ 3.02 µM)
- MIC (B. anthracis): < 0.03 µg/mL

Compound: O=C(O)C1=C(c2ccc(F)c(N3CCNCC3)c2)N(C23CC4CCC(C2)C(C4)C3)C(=O)CC1 (stereo not shown) [BVS-97E (XIV)]
- MIC (B. pseudomallei): > 64 µg/mL
- MIC (Y. pestis): > 64 µg/mL
- MIC (E. coli): 16 to 32 µg/mL (≈ 35.3 to 70.6 µM)
- MIC (P. aeruginosa): > 64 µg/mL
- MIC (F. tularensis): 0.5 to 4 µg/mL (≈ 1.1 to 8.82 µM)
- MIC (B. mallei): > 64 µg/mL
- MIC (B. anthracis): 4 µg/mL (≈ 8.82 µM)

Compound: Nc1ccn([C@H]2CC[C@@H](CO)O2)c(=O)n1 [DDC, di-deoxycytosine, reference compound]
- % CELL VIABILITY (CEM-SS cells; 0.00003 μM): 100%
- % CELL VIABILITY (CEM-SS cells; 0.0001 μM): 93%
- % CELL VIABILITY (CEM-SS cells; 0.00032 μM): 99%
- % CELL VIABILITY (CEM-SS cells; 0.001 μM): 100%
- % CELL VIABILITY (CEM-SS cells; 0.0032 μM): 100%
- % CELL VIABILITY (CEM-SS cells; 0.01 μM): 100%
- % CELL VIABILITY (CEM-SS cells; 0.032 μM): 100%
- % CELL VIABILITY (CEM-SS cells; 0.1 μM): 96%
- % CELL VIABILITY (CEM-SS cells; 0.32 μM): 97%
- % CELL VIABILITY (CEM-SS cells; 1 μM): 100%
- % CELL VIABILITY (CEM-SS cells; 3.2 μM): 100%
- % CELL VIABILITY (CEM-SS cells; 10 μM): 100%
- % RED. IN VIRAL CPE (HIV-1; 0.00003 μM): 1%
- % RED. IN VIRAL CPE (HIV-1; 0.0001 μM): 5%
- % RED. IN VIRAL CPE (HIV-1; 0.00032 μM): 6%
- % RED. IN VIRAL CPE (HIV-1; 0.001 μM): 4%
- % RED. IN VIRAL CPE (HIV-1; 0.0032 μM): 8%
- % RED. IN VIRAL CPE (HIV-1; 0.01 μM): 9%
- % RED. IN VIRAL CPE (HIV-1; 0.032 μM): 75%
- % RED. IN VIRAL CPE (HIV-1; 0.1 μM): 81%
- % RED. IN VIRAL CPE (HIV-1; 0.32 μM): 92%
- % RED. IN VIRAL CPE (HIV-1; 1 μM): 86%
- % RED. IN VIRAL CPE (HIV-1; 3.2 μM): 100%
- % RED. IN VIRAL CPE (HIV-1; 10 μM): 100%

Compound: Cc1cn([C@H]2C[C@H](N=[N+]=[N-])[C@@H](CO)O2)c(=O)[nH]c1=O [AZT, reference compound]
- RT ACTIVITY % VC ([6]; 0.0013 μM): 104.6%
- RT ACTIVITY % VC ([6]; 0.013 μM): 77.3%
- RT ACTIVITY % VC ([6]; 0.04 μM): 81.7%
- RT ACTIVITY % VC ([6]; 0.13 μM): 32.3%
- RT ACTIVITY % VC ([6]; 0.4 μM): 3.8%
- RT ACTIVITY % VC ([6]; 1.3 μM): 8.8%
- RT ACTIVITY % VC ([6]; 4 μM): 0.7%
- IC50 ([6]; ROJO in PBMC, RT activity): 0.1 µM
- CC50 [7]: > 4 µM
- TOXICITY VALUES (XTT) % CC ([7]; 0.0013 μM): 90.1%
- TOXICITY VALUES (XTT) % CC ([7]; 0.013 μM): 99.3%
- TOXICITY VALUES (XTT) % CC ([7]; 0.04 μM): 92.1%
- TOXICITY VALUES (XTT) % CC ([7]; 0.13 μM): 89.0%
- TOXICITY VALUES (XTT) % CC ([7]; 0.4 μM): 98.8%
- TOXICITY VALUES (XTT) % CC ([7]; 1.3 μM): 84.8%
- TOXICITY VALUES (XTT) % CC ([7]; 4 μM): 86.2%
